Some test systems named below: U251 CNS; SF-295 CNS; MDA-MB-435; MOLT-4 leukemia; UO-31 renal; RXF 393 renal; SF-268 CNS; OVCAR-4 ovarian; SK-MEL-5 melanoma; OVCAR-5 ovarian.
Holding throughout (assay): NCI tumour cell line growth inhibition, 48 h

Molecules are shown by their SMILES.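 Assay format: 96-well plates, 48-hour exposure. Abbreviation: GI50, concentration required for 50% inhibition of growth. TGI marks complete inhibition of growth.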 Bounds are passed on as bounds.

In the case of `Nc1c2c(c(O)c3c1=C(CO)C=N3)=NCCS2`, the GI50 is 0.18 µM with U251 CNS; 0.177 µM with SF-295 CNS; 0.0521 µM in the assay with MDA-MB-435; 0.223 µM in the assay on MOLT-4 leukemia; 0.161 µM with UO-31 renal; 0.289 µM in the assay with RXF 393 renal. The GI50 was 0.291 µM in the assay on SF-268 CNS, 0.136 µM in the assay on OVCAR-4 ovarian, 0.0215 µM in the assay with SK-MEL-5 melanoma and 0.184 µM in the assay with OVCAR-5 ovarian. Moreover, the TGI with U251 CNS was determined as 0.329 µM; with SF-295 CNS it was 0.33 µM; in the assay on MDA-MB-435, 0.169 µM; with MOLT-4 leukemia, 0.541 µM; in the assay on UO-31 renal, 0.345 µM; with RXF 393 renal, 1.24 µM. The TGI with SF-268 CNS came to 1.05 µM; in the assay on OVCAR-4 ovarian, 0.264 µM; with SK-MEL-5 melanoma it was 0.0543 µM; in the assay with OVCAR-5 ovarian, 0.346 µM.

Regarding `c1cc(N2CCCN(c3ccc(C4=NCCCN4)cc3)CC2)ccc1C1=NCCCN1`, the GI50 is 65.9 µM in the assay with U251 CNS; 51.1 µM in the assay on SF-295 CNS; above 100 µM with MDA-MB-435; above 100 µM with MOLT-4 leukemia; above 100 µM with UO-31 renal; above 100 µM in the assay with RXF 393 renal. Also, the GI50 in the assay on SF-268 CNS was above 100 µM; in the assay with OVCAR-4 ovarian it was above 100 µM; in the assay on SK-MEL-5 melanoma, 46.6 µM; in the assay on OVCAR-5 ovarian it was above 100 µM. Also, the TGI in the assay with U251 CNS, with SF-295 CNS, in the assay with MDA-MB-435, with MOLT-4 leukemia, with UO-31 renal and in the assay with RXF 393 renal was above 100 µM in each case. The TGI in the assay with SF-268 CNS, in the assay on OVCAR-4 ovarian, with SK-MEL-5 melanoma and in the assay on OVCAR-5 ovarian was above 100 µM each time.

For the molecule `CCCN(CCC)c1ccc(/C=C/c2ccc3cc(OCC)ccc3n2)cc1`, the GI50 in the assay with U251 CNS was 48.5 µM; in the assay on SF-295 CNS, 22.7 µM; with MDA-MB-435 it was above 100 µM; in the assay on MOLT-4 leukemia, above 100 µM; in the assay with UO-31 renal, above 100 µM; in the assay on RXF 393 renal it was 5.23 µM. The GI50 in the assay on SF-268 CNS is above 100 µM; in the assay with OVCAR-4 ovarian, 72.7 µM; in the assay on SK-MEL-5 melanoma it was 23.6 µM; in the assay on OVCAR-5 ovarian, above 100 µM. The TGI was above 100 µM with U251 CNS; above 100 µM in the assay with SF-295 CNS; above 100 µM in the assay on MDA-MB-435; above 100 µM in the assay with MOLT-4 leukemia; above 100 µM in the assay with UO-31 renal; 64.1 µM with RXF 393 renal. Moreover, the TGI in the assay on SF-268 CNS, in the assay with OVCAR-4 ovarian, with SK-MEL-5 melanoma and in the assay with OVCAR-5 ovarian was above 100 µM in each case.

On to `C=C1C(C2(C)C(OC(C)=O)CC(=O)OC(C)(COC(C)=O)C2CC(=O)OC)C(OC=O)C(OC(=O)C(O)C(C)CC)C2(C)C(c3ccoc3)CC(=O)C12O` (stereo not given), for which the TGI was above 100 µM in the assay with U251 CNS; above 100 µM in the assay with SF-295 CNS; above 100 µM in the assay on MDA-MB-435; above 100 µM in the assay with MOLT-4 leukemia; 18.1 µM in the assay on UO-31 renal; 6.48 µM in the assay on RXF 393 renal. The TGI in the assay on SF-268 CNS, in the assay on OVCAR-4 ovarian, in the assay with SK-MEL-5 melanoma and in the assay on OVCAR-5 ovarian was above 100 µM each time.

In the case of `Cc1ccc(Cc2cnc(NC(=O)/C=C/c3cccc(C)c3)s2)cc1`, the GI50 in the assay on U251 CNS was 0.144 µM; with SF-295 CNS it was 0.0786 µM; with MDA-MB-435, 0.0275 µM; in the assay on MOLT-4 leukemia it was 0.261 µM; with UO-31 renal, 0.395 µM; in the assay with RXF 393 renal, 0.106 µM. Also, the GI50 is 1.85 µM in the assay on SF-268 CNS, 0.842 µM with OVCAR-4 ovarian, 0.404 µM in the assay on SK-MEL-5 melanoma and 0.492 µM with OVCAR-5 ovarian. For the same molecule, the TGI with U251 CNS is 4.97 µM; in the assay with SF-295 CNS, 0.558 µM; with MDA-MB-435 it was 0.104 µM; in the assay on MOLT-4 leukemia it was above 100 µM; with UO-31 renal it was 9.54 µM; with RXF 393 renal it was 0.671 µM. Also, the TGI in the assay with SF-268 CNS is above 100 µM; in the assay on OVCAR-4 ovarian, 4.71 µM; in the assay on SK-MEL-5 melanoma, above 100 µM; with OVCAR-5 ovarian, above 70.8 µM.

For `CC1=C(C(=O)Nc2ccc(Cl)c(Cl)c2)C(c2cccc(Cl)c2)NC(=O)N1` (stereo not given), the GI50 is 8.32 µM with U251 CNS; 1.04 µM in the assay on SF-295 CNS; 0.464 µM with MDA-MB-435; 4.99 µM in the assay on MOLT-4 leukemia; 8.2 µM with UO-31 renal; 13.8 µM with RXF 393 renal. Moreover, the GI50 is 7.85 µM in the assay on SF-268 CNS, 14.1 µM in the assay on OVCAR-4 ovarian, 8.93 µM in the assay with SK-MEL-5 melanoma and 11.2 µM with OVCAR-5 ovarian. Moreover, the TGI with U251 CNS is 17 µM; in the assay on SF-295 CNS, 5.12 µM; in the assay on MDA-MB-435 it was 1.92 µM; in the assay on MOLT-4 leukemia it was above 23.3 µM; in the assay on UO-31 renal it was 15.9 µM; in the assay on RXF 393 renal, 32.6 µM. For the same molecule, the TGI in the assay on SF-268 CNS is 17.4 µM; in the assay with OVCAR-4 ovarian, above 50 µM; in the assay on SK-MEL-5 melanoma, 17.4 µM; in the assay on OVCAR-5 ovarian it was 30.9 µM.

As to `C=C1C(=O)O[C@H]2[C@H]1CC/C(COC(=O)c1cc3ccccc3o1)=C\CC[C@@]1(C)O[C@@H]21`, the GI50 is 1.63 µM in the assay with U251 CNS; 5.9 µM in the assay on SF-295 CNS; 1.43 µM in the assay on MDA-MB-435; 1.77 µM in the assay on MOLT-4 leukemia; 1.46 µM in the assay with UO-31 renal; 1.43 µM in the assay with RXF 393 renal. The GI50 with SF-268 CNS was 1.56 µM; in the assay on OVCAR-4 ovarian, 1.56 µM; in the assay on SK-MEL-5 melanoma it was 1.52 µM; in the assay with OVCAR-5 ovarian it was 1.88 µM. Further, the TGI in the assay on U251 CNS amounted to 3.16 µM; with SF-295 CNS, 19.1 µM; in the assay with MDA-MB-435, 2.9 µM; in the assay on MOLT-4 leukemia it was 6.06 µM; with UO-31 renal, 2.79 µM; in the assay with RXF 393 renal it was 2.87 µM. The TGI was 3.27 µM with SF-268 CNS, 3.98 µM in the assay with OVCAR-4 ovarian, 2.89 µM in the assay on SK-MEL-5 melanoma and 3.75 µM in the assay on OVCAR-5 ovarian.

For `C[C@@H](O)[C@H](NC(=O)N[C@@H](CC(N)=O)c1nc([C@@H](N)CO)no1)C(=O)O`, the GI50 in the assay with U251 CNS, with SF-295 CNS, in the assay with MDA-MB-435, in the assay with MOLT-4 leukemia, in the assay on UO-31 renal and in the assay with RXF 393 renal was above 100 µM each time. The GI50 in the assay with SF-268 CNS, in the assay with OVCAR-4 ovarian, in the assay with SK-MEL-5 melanoma and in the assay on OVCAR-5 ovarian was above 100 µM each time. The TGI with U251 CNS, in the assay with SF-295 CNS, with MDA-MB-435, in the assay with MOLT-4 leukemia, in the assay with UO-31 renal and with RXF 393 renal was above 100 µM each time. For the same molecule, the TGI in the assay on SF-268 CNS, in the assay with OVCAR-4 ovarian, in the assay with SK-MEL-5 melanoma and in the assay with OVCAR-5 ovarian was above 100 µM in each case.

For the origin of these results see PubChem BioAssay (NCI).
